ChEMBL document CHEMBL4043240, “Synthesis and evaluation of the NSCLC anti-cancer activity and physical properties of 4-aryl-N-phenylpyrimidin-2-amines” (Bioorg Med Chem Lett, 2017)
Converted amounts (≈) assume the structure as drawn.

Experiments:
A549 = assay: Cytotoxicity against human A549 cells after 72 hrs by MTT assay; type: functional, cell-based; conditions: A549, 72 h
Vero = assay: Cytotoxicity against African green monkey Vero cells after 72 hrs by MTT assay; type: ADME, cell-based; conditions: Chlorocebus sabaeus
[1] = Selectivity index, ratio of IC50 for African green monkey Vero cells to IC50 for human A549 cells; type: functional
KB [2] = assay: Cytotoxicity against human KB cells at 10 uM after 72 hrs by resazurin based fluorescence assay relative to control; type: functional
NCI-H187 [3] = assay: Cytotoxicity against human NCI-H187 cells after 72 hrs by resazurin based fluorescence assay; type: functional, cell-based; conditions: NCI-H187, 72 h
NCI-H187 [4] = assay: Cytotoxicity against human NCI-H187 cells at 10 uM after 72 hrs by resazurin based fluorescence assay; type: functional
MCF7 [5] = assay: Cytotoxicity against human MCF7 cells at 10 uM after 72 hrs by resazurin based fluorescence assay; type: functional
[6] = Solubility of the compound in PBS at pH 7.4 by HPLC-UV analysis; type: physicochemical
[7] = 1-octanol/water partition co-efficient, log D of the compound in PBS at pH 7.4 after 6 hrs by HPLC-UV based shake-flask method; type: physicochemical; conditions: 1-octanol/PBS
KB [8] = assay: Cytotoxicity against human KB cells after 72 hrs by resazurin based fluorescence assay; type: functional, cell-based
MCF7 [9] = assay: cells; conditions: Homo sapiens, MCF7, 72 h
Description: Cytotoxicity against human MCF7 cells after 72 hrs by resazurin based fluorescence assay

KB [10] = assay: Cytotoxicity against human KB cells at 10 ug/ml after 72 hrs by resazurin based fluorescence assay relative to control; type: functional
NCI-H187 [11] = assay: Cytotoxicity against human NCI-H187 cells at 10 ug/ml after 72 hrs by resazurin based fluorescence assay; type: functional
[12] = target: Cyclin-dependent kinase 5 (Homo sapiens, UniProt Q00535); assay: Inhibition of human CDK5
Chain of Cyclin-dependent kinase 5 (Q00535 whole entry): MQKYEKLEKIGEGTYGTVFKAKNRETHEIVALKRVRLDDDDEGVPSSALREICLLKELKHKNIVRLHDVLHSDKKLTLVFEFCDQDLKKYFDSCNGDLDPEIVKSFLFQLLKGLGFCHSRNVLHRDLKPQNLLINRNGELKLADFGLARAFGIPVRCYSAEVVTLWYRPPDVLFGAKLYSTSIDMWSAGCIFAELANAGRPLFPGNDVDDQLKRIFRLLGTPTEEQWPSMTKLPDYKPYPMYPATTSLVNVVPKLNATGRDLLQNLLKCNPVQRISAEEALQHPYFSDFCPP

Row | solubility [6] | logD at 6 h [7] | IC50 (MCF7 [9]) | IC50 [12] | Structure (SMILES) | IC50 (A549) | IC50 (Vero) | Ratio IC50 [1] | Activity (KB [2]) | IC50 (NCI-H187 [3]) | Activity (NCI-H187 [4]) | Activity (MCF7 [5]) | IC50 (KB [8]) | Activity (KB [10]) | Activity (NCI-H187 [11])
1 | < 0.5 µM | 3.2 | – | – | COc1ccc(-c2ccnc(Nc3cccc(NS(C)(=O)=O)c3)n2)cc1 | 0.2 µM | 0.9 µM | 4.5 | 43.7% | 5.35 µM | 84.8% | 41% | – | – | –
2 | 6.9 µM (≈ 2.31 µg/mL) | 2.9 | – | – | COC(=O)c1ccc(Nc2nccc(-c3ccc(OC)cc3)n2)cc1 | 6 µM | 4.5 µM | 0 | 0% | – | 23.8% | 0% | – | – | –
3 | – | – | – | – | COc1ccc(-c2ccnc(Nc3ccc4cn[nH]c4c3)n2)cc1 | 65.1 µM | 7.9 µM | 0 | – | – | – | – | – | – | –
4 | 38.4 µM (≈ 13.7 µg/mL) | 2.7 | 5.95 µM | – | COc1ccc(-c2ccnc(Nc3cccc(S(N)(=O)=O)c3)n2)cc1 | 1.6 µM | 1.1 µM | 0 | 76.3% | 2.08 µM | 82.3% | 63.3% | 1.29 µM | – | –
5 | – | – | – | – | Cc1c2ccncc2c(C)c2c1[nH]c1ccccc12 [ELLIPTECINE] | – | – | – | – | 0.95 µM | – | – | 2.81 µM | 96.3% | 99.24%
6 | 12.1 µM (≈ 3.89 µg/mL) | 1.2 | – | – | COc1ccc(-c2ccnc(Nc3ccc(C(=O)O)cc3)n2)cc1 | 20.3 µM | > 100 µM | >4.9 | 0% | – | 23.5% | 0% | – | – | –
7 | – | – | – | – | Cc1csc(-c2ccnc(Nc3ccc(C(N)=O)cc3)n2)c1 | 30 µM | 6.2 µM | 0 | – | – | – | – | – | – | –
8 | 3.4 µM (≈ 1.11 µg/mL) | 2.9 | – | – | NS(=O)(=O)c1cccc(Nc2nccc(-c3ccccc3)n2)c1 | 0.2 µM | 0.8 µM | 4 | 93.6% | 1.18 µM | 99.8% | 0% | 2.44 µM | – | –
9 | – | – | – | – | CS(=O)(=O)c1ccc(-c2ccnc(Nc3cccc(S(N)(=O)=O)c3)n2)cc1 | > 100 µM | > 100 µM | 0 | – | – | – | – | – | – | –
10 | – | – | – | 81 µM | COc1ccc(-c2ccnc(Nc3cccc(N)c3)n2)cc1 | – | – | – | – | – | – | – | – | – | –
11 | – | – | – | – | Cc1csc(-c2ccnc(Nc3cc([N+](=O)[O-])ccc3O)n2)c1 | > 100 µM | > 100 µM | 0 | – | – | – | – | – | – | –
12 | 4.1 µM (≈ 1.31 µg/mL) | 3.1 | – | – | COc1ccc(-c2ccnc(Nc3cccc(C(N)=O)c3)n2)cc1 | 6.7 µM | 2.7 µM | 0 | 0% | – | 18.6% | 0% | – | – | –
13 | – | – | – | – | Cc1csc(-c2ccnc(Nc3cccc(C(N)=O)c3)n2)c1 | > 100 µM | > 100 µM | 0 | – | – | – | – | – | – | –
14 | – | – | – | – | Cc1csc(-c2ccnc(Nc3ccc(C(=O)O)cc3)n2)c1 | 18.2 µM | 80.8 µM | 4.4 | – | – | – | – | – | – | –
15 | – | – | – | – | CC(=O)Nc1ccc(-c2ccnc(Nc3cccc(S(N)(=O)=O)c3)n2)cc1 | 6.6 µM | 8.7 µM | 1.3 | – | – | – | – | – | – | –
16 | – | – | – | – | CC(=O)Nc1ccc(-c2ccnc(Nc3cccc(C(N)=O)c3)n2)cc1 | 33 µM | > 100 µM | >3 | – | – | – | – | – | – | –
17 | < 0.6 µM | 3 | 1.5 µM | – | COc1cccc(-c2ccnc(Nc3cccc(S(N)(=O)=O)c3)n2)c1 | 2.6 µM | 1.1 µM | 0 | 94.9% | 1.34 µM | 96.6% | 63.8% | 3.56 µM | – | –
18 | – | – | – | – | CS(=O)(=O)c1ccc(-c2ccnc(Nc3cccc(C(N)=O)c3)n2)cc1 | > 100 µM | 37.9 µM | 0 | – | – | – | – | – | – | –
19 | < 0.6 µM | 2.8 | – | – | COc1ccc(-c2ccnc(Nc3ccc(C(N)=O)cc3)n2)cc1 | 5.3 µM | 5.4 µM | 0 | 0% | – | 28.1% | 1.9% | – | – | –
20 | – | – | – | – | COc1cccc2c1C(=O)c1c(O)c3c(c(O)c1C2=O)C[C@@](O)(C(=O)CO)C[C@@H]3O[C@H]1C[C@H](N)[C@H](O)[C@H](C)O1 [DOXORUBICIN] | 0.4 µM | 1.4 µM | – | – | 0.06 µM | – | – | 1.35 µM | 99.7% | 96.98%
21 | – | – | 7.94 µM | – | CC/C(=C(\c1ccccc1)c1ccc(OCCN(C)C)cc1)c1ccccc1 [TAMOXIFEN] | – | – | – | – | – | – | – | – | – | –
22 | – | – | – | – | COc1ccc(-c2ccnc(Nc3ccc4nc[nH]c4c3)n2)cc1 | 13.9 µM | 14.8 µM | 1.1 | – | – | – | – | – | – | –
23 | – | – | – | – | COc1ccc(-c2ccnc(Nc3ccc(S(N)(=O)=O)cc3)n2)cc1 | 4.4 µM | 2.4 µM | 0 | – | – | – | – | – | – | –
